{"source": "paper PMC10482975", "about": "(Nature Communications, 2023)", "origin": "cited, not measured here", "target": "M2 mAChR", "conditions": "read-out: predicted affinity for allosteric binding; cited from earlier work"}
{"smiles": "C[N+](C)(C)CC#CCN1CCCC1=O", "note": "[oxotremorine-M]", "values": [{"measurement": "Kd", "value": "> 1000", "unit": "µM"}]}
